Data published in patent US20040176430A1, “Propargyl-trifluoromethoxy-amino-benzothiazole derivatives” (priority 2002, published 2004).
Several values for one entry are separate records, joined by “and”; a condition that tells them apart may be missing. Equal entries are not always repeated.

Columns and labels:
EAE = test: Experimental Allergic Encephalomyelitis (EAE) model of MS; format: in vivo, mice; settings: 10 mg/kg twice daily, oral gavage, 30 days
Description: EAE is an accepted animal model of autoimmune disorder (Tisch et al. Proc. Natl. Acad. Sci. USA (1994) 91:437-438). EAE was induced by injecting the encephalitogenic agent consisting of MSCH and commercial CFA containing Mycobacterium tuberculosis H37Ra to the foot-pads of the animals and pertussis toxin intravenously.
GA-DS in MSCH emulsion was injected in the four footpads. The other compounds were administered to the respective groups by oral gavage twice daily for 30 consecutive days starting from the day of induction until the termination of the study.
Scoring of EAE clinical signs was initiated from Day 10 post-EAE induction and was continued daily for 20 days. The clinical signs were recorded on observation cards according to a grading system described in the table below.
The number of dead or moribund animals in each group were summed.
The mortality rate was calculated as: [formula]
The mean maximal score (MMS) of each group was calculated as Σ maximal score of each mouse/number of mice in the group.
The percent inhibition was calculated as [formula]
The daily scores of each mouse in the test group was summed and the individual mean daily score (IMS) was calculated as IMS=daily score of mouse/observation period (days).
The mean group score (GMS) will be calculated as Σ IMS of each mouse/number of mice in the group.
The percent inhibition will be calculated as [formula]

PC-12 cells = test: Effect on MPP+ treated PC-12 cells (LDH release); format: cell-based; settings: MPP+ 1000 μM for 48 hours, tested compound 10 μM added 30 min prior to MPP+
Description: Pheochromocytoma PC-12 cells (at a density of 200,000 cells/well) were cultured for 10 days with 50 ng/ml NGF on 6-well culture dishes coated with 200 ug/ml rat tail type I collagen (BD Biosciences, Bedford, Mass., USA). On the day of the experiment the morphological differentiation of the cells was very advanced (typical network formation). In order to initiate the neurotoxic insult, cells were treated with 1000 μM of 1-methyl-4-phenylpyrdinium (MPP+) iodide salt from RBI chemicals (Natick, Mass., USA) for 48 hours in the absence or presence of tested compounds, added to the culture 30 min. prior to MPP+ administration. […] At the cellular level, neuronal cell death is induced by several mechanisms including pathological concentrations of intracellular calcium and free oxygen radicals. Therefore the positive control in this experiment was nimodipine at the concentration of 10 μM (RBI chemicals, Natick, Mass., USA)(a potent L-type calcium channel blocker). At the end of the experiment cell death was measured by assessing Lactate dehydrogenase (LDH) activity in the medium. High medium LDH indicated increased neuronal death that promoted leakage of this cytoplasmic enzyme into the medium.
Measuring lactate dehydrogenase activity in the medium was performed using a Sigma Diagnostics LD-L reagent. LDH activity was spectrophotometrically monitored at 340 nm by following the rate of conversion of oxidized nicotinamide adenine dinucleotide (NAD^+) to the reduced form of (NADH). Total LDH of each culture (extracellular+intracellular) was obtained by measuring LDH in the medium after freezing and thawing of the cultures. Basal LDH release was measured in untreated cultures (no MPP+). The neurotoxic effect was calculated according to the formula: (LDHs−LDHb)/LDHt×100. (s=sample; b=basal; t=total). Each compound was tested in sixplicate.

C57bl mice = test: Effect on MPP+ toxicity in mice (striatal dopamine and DOPAC); format: in vivo; settings: for DOPAC Pmol/mg tissue +/− S.E.M. / Dopamine Pmol/mg tissue +/− S.E.M.: 5 mg/kg oral in CMC
Description: MPP+ is a neuro-toxin and its injection into the brain causes depletion of striatal dopamine. Male C57bl mice, weighing 24-25 g were divided into 4 groups A-D receiving the following treatments:
A: Oral administration of 0.25% Carboxymethyl cellulose (CMC, 0.1 ml/mouse) and intracerebroventricular (ICV) injection of saline (10 μl/mouse).
B. Oral administration of 5 mg/kg 3a in 0.1 ml CMC, and ICV injection of 10 μl saline.
C. Oral administration of 0.1 ml CMC, and ICV injection of 30 μg MPP+ dissolved in 10 μl saline.
D. Oral administration of 5 mg/kg 3a in 0.1 ml CMC, and ICV injection of 30 μg MPP+ dissolved in 10 μl saline.
3a/CMC or CMC alone were orally administered 30 minutes before and 2 hours after ICV injection. The injection was done according to Haley T. J and McCormick W. G (Brit.J. Pharmacol., 1957, 12, 12) using ether anesthesia. Saline or MPP+/saline were injected during 1 second using a syringe that delivered the liquid at a rate of 0.6 ml/min. Two ICV injections were carried out with a 24 hour interval between them. Mice were killed six days after the last injection and striata taken for dopamine and DOPAC determinations. Each striatum was weighed, homogenized in 0.1M Perchloric acid (0.6 ml) containing 2 mM sodium metabisulfite and 0.3 mM EDTA. After centrifugation at 13000 g for 7 minutes, the supernatant was taken for catecholamine determination. Aliquotes of 20 μl were injected into the solvent stream of an HPLC apparatus equipped with a Microsorb column (packing 3 μm, 4.6 mm diameter, 12.5 cm long). The mobile phase was composed of NaH2PO4 100 mM, octan-1-sulphonic acid 1.5 mM, disodium ethylenediaminetetracetic acid 250 μM, methanol 2.3%, acetonitrile 4% in grade deionized water, at a flow rate of 1.0 ml min^−1. Dopamine and DOPAC were detected with an ESA Coulochem model 5014 detector (Bedford, Mass., USA). Column eluates were initially oxidized by an ESA guard cell (model 5020) at +300 mV, then reduced at +60 mV at detector 1 and measured at detector 2 at −250 mV.

[1] = with ICV MPP+ 30 μg (Group D), striatum six days after last injection
[2] = without MPP+, ICV saline (Group B), striatum

## C#CCN(CC(=O)c1ccc(C)cc1)c1nc2ccc(OC(F)(F)F)cc2s1 [Compound 9, 2-[Prop-2-ynyl-(6-trifluoromethoxy-benzothiazole-2-yl)-amino]-1-p-tolyl-ethanone]
EAE
  GMS % Inhibition: 57.6%
  MMS % Inhibition: 48.8%
  Mortality % Inhibition: 50%

## C#CCNc1nc2ccc(OC(F)(F)F)cc2s1 [Compound 4, Prop-2-ynyl-(6-trifluoromethoxy-benzothiazol-2-yl)-amine]
other
  melting point: 138 to 140 °C

## C#CC(C)N(C)c1nc2ccc(OC(F)(F)F)cc2s1 (stereo not drawn) [Compound 6, Methyl-(1-methyl-prop-2-ynyl)-(6-trifluoromethoxy-benzothiazol-2-yl)-amine]
other
  melting point: 42 to 43 °C

## C#CCN=c1sc2cc(OC(F)(F)F)ccc2n1C [Compound 10, (3-Methyl-6-trifluoromethoxy-3H-benzothiazol-2-ylidene)-prop-2-ynyl-amine]
EAE
  GMS % Inhibition: 37.5%
  MMS % Inhibition: 34.1%
  Mortality % Inhibition: 40%

## C#CCN=c1sc2cc(OC(F)(F)F)ccc2n1CC(=O)c1ccc(C)cc1 [Compound 13, 2-(2-Prop-2-ynylimino-6-trifluoromethoxy-benzothiazole-3-yl)-1-p-tolyl-ethanone]
other
  melting point: 98 to 100 °C

## C#CCN(C)c1nc2ccc(OC(F)(F)F)cc2s1.Cl [Compound 3a, Methyl-prop-2-ynyl-(6-trifluoromethoxy-benzothiazol-2-yl)-amine.HCl salt]
PC-12 cells
  Percent of total LDH release (mean ± S.E.M.): 10.9% and 10.9 ± 2.3%
C57bl mice; Group D, 5 mg/kg oral, MPP+ ICV
  Effect on MPP+ caused depletion in striatal concentrations of dopamine and DOPAC: reduced this depletion
C57bl mice; [1]
  DOPAC Pmol/mg tissue +/− S.E.M.: 3.7 +/− 0.2 Pmol/mg tissue
  Dopamine Pmol/mg tissue +/− S.E.M.: 66.0 +/− 3.4 Pmol/mg tissue
C57bl mice; [2]
  DOPAC Pmol/mg tissue +/− S.E.M.: 4.8 +/− 0.4 Pmol/mg tissue
  Dopamine Pmol/mg tissue +/− S.E.M.: 78.2 +/− 4.3 Pmol/mg tissue

## C#CCNc1nc2ccc(OC(F)(F)F)cc2s1.Cl [Compound 4a, Prop-2-ynyl-(6-trifluoromethoxy-benzothiazol-2-yl)-amine.HCl salt]
PC-12 cells
  Percent of total LDH release (mean ± S.E.M.): 25 ± 8.0%

## COCCOC(=O)C1=C(C)NC(C)=C(C(=O)OC(C)C)C1c1cccc([N+](=O)[O-])c1 (stereo not drawn) [Nimodipine, reference compound]
PC-12 cells
  Percent of total LDH release (mean ± S.E.M.): 3.6 ± 0.4%
PC-12 cells; listed as nimodipine
  Percent of total LDH release (mean ± S.E.M.): 3.6%

## C#CCN(C)c1nc2ccc(OC(F)(F)F)cc2s1 [Compound 3, Methyl-prop-2-ynyl-(6-trifluoromethoxy-benzothiazol-2-yl)-amine]
EAE
  GMS % Inhibition: 87.5%
  MMS % Inhibition: 73.5%
  Mortality % Inhibition: 100%
